Read-outs that look alike come from different tables or passages of the source.
Columns and labels:
human mGluR5 = human mGluR5 (Homo sapiens, UniProt P41594); experiment: Cell-based functional Ca2+ mobilization assay (FDSS), potentiation of glutamate EC20 response
Source text: Human mGluR5a cDNA in pCMV6-XL6 mammalian expression plasmid was purchased from OriGene Technologies, Inc. (catalogue number SC326357) and subcloned into pcDNA3.1(-). Human embryonic kidney (HEK)293A cells were then transfected with human mGluR5a pcDNA3.1(-) using LipofectAmine-2000 (Invitrogen) and monoclones were selected and tested for functional response using a Ca^2+ mobilization assay. Monoclones were named for the species (“H” for human) plus the location on the plate (e.g. “10H”). […] Cell-lines used were either the H10H or […] cell-lines expressing the human mGluR5 receptor. The following day, the growth medium was removed and the cells were washed with assay buffer containing 1× Hank's balanced salt solution (Invitrogen, Carlsbad, Calif.), 20 mM HEPES, 2.5 mM probenecid, pH 7.4 and left with 20 μL of this reagent. Following this step, the cells were loaded with calcium indicator dye, fluo-4 AM, to a final concentration of 2 μM and incubated for 40-45 min at 37° C. The dye solution was removed and replaced with assay buffer. Cell plates were held for 10-15 min at room temperature and were then loaded into the Functional Drug Screening System 6000 (FDSS 6000, Hamamatsu, Japan). […] Calcium fluorescence measures were recorded as fold over basal fluorescence; raw data was then normalized to the maximal response to glutamate. […] The concentration-response curves of compounds of the present invention, obtained in the presence of EC20 of mGluR5 receptor agonist glutamate to determine positive allosteric modulation, were generated using Microsoft Excel with IDBS XLfit add-ins. The raw data file containing all time points was used as the data source in the analysis template. This was saved by the FDSS as a tab-delimited text file. Data were normalized using a static ratio function (F/F0) for each measurement of the total 350 values per well divided by each well's initial value. […] This is sufficient time to capture the peak amplitude of the cellular Calcium response. […] Each of the three values collected at each concentration of test compound were weighted evenly. Individual values falling outside the 95% prediction limits of the curve fit were automatically excluded from the fit. […] These two methods are in good agreement for curves with a clear plateau at the high concentration range. […] For consistency purposes across the range of potencies observed, all EMax values reported in this application are calculated using the maximum average response at a single concentration. The % EMax value for each compound reported in this application is defined as the maximum % effect obtained in a concentration-response curve of that compound expressed as a percent of the response of a maximally effect concentration of glutamate. […] Table IV below lists specific compounds as well as experimentally determined mGluR5 activity determined in a cell-based. The mGluR5 activity was determined using the metabotropic glutamate receptor activity assays in human embryonic kidney cells as described herein, wherein the human embryonic kidney cells were transfected with human mGluR5. The data in Table III were obtained using the H10H cell-line which expresses recombinant human mGluR5. The compound number corresponds to the compound numbers used in Table I.

[1] = system: amphetamine-induced hyperlocomotion; experiment: Reversal of amphetamine-induced hyperlocomotion in rat; type: in vivo; conditions: male Sprague-Dawley rats; compound p.o.; amphetamine 1 mg/kg s.c.
Procedure: The study was carried out using male Sprague-Dawley rats weighing 225 g-275 g, between 2-3 months old (Harlan, Inc., Indianapolis, Ind.). They were kept in the animal care facility certified by the American Association for the Accreditation of Laboratory Animal Care (AALAC) under a 12-hour light/dark cycle (lights on: 6 a.m.; lights off: 6 p.m.) and had free access to food and water. The experimental protocols performed during the light cycle were approved by the Institutional Animals Care and Use Committee of Vanderbilt University and conformed to the guidelines established by the National Research Council Guide for the Care and Use of Laboratory Animals.
Locomotor activity was assessed as mean distance traveled (cm) in Smart Open Field locomotor activity test chambers (Hamilton-Kinder, San Diego, Calif.) with 16×16 photobeams with chambers measuring 43.2 cm (Length)×43.2 cm (Width)×30.5 cm (Height) (Med Associates, St. Albans, Vt.). […] At 60 min, all rats were injected subcutaneously with 1 mg/kg amphetamine or vehicle and then monitored for an additional 60 min. Animals are monitored for a total of 120 minutes.
Data are expressed as the mean (±SEM) distance traveled recorded in 5 min intervals over the test period. The data was analyzed using repeated measures analysis of variance (ANOVA) followed by post-hoc testing using Dunnett's test, when appropriate. […]

[2] = H10H cell-line, maximum % effect as percent of response to maximally effective glutamate, glutamate EC20 present, read-out: Emax (%)
[3] = H10H cell-line, potentiation in presence of glutamate EC20

human mGluR5, sequence (P41594 21-1180 isoform P41594-2 limits assumed): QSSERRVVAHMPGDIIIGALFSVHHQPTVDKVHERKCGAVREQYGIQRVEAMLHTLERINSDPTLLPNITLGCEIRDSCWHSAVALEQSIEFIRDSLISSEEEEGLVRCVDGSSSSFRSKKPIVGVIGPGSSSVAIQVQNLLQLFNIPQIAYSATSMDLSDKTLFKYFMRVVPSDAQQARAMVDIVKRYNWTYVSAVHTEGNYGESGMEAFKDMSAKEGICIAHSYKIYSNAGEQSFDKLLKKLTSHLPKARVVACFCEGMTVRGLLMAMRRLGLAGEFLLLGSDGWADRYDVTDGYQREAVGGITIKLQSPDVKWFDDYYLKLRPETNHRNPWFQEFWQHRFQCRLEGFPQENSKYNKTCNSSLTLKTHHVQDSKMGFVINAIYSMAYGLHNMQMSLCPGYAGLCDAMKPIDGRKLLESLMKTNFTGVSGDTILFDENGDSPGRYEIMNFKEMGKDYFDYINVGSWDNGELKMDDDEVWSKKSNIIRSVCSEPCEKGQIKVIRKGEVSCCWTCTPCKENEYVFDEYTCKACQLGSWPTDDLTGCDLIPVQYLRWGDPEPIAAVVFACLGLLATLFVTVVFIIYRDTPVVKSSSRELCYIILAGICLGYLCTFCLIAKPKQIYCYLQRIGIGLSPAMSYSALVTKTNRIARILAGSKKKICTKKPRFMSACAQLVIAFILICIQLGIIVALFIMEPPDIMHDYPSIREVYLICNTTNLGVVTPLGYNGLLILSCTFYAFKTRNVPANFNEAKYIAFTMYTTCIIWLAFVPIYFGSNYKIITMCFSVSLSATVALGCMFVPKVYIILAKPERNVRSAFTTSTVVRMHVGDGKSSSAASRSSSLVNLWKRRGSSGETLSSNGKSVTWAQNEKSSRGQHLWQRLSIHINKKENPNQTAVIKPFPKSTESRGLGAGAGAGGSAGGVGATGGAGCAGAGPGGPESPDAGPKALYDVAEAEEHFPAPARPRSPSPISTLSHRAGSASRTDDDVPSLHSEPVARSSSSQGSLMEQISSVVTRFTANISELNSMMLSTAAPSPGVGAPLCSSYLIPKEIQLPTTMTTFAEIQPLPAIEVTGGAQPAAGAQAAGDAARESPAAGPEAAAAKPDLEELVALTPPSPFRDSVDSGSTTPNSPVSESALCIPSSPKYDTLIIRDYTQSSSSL

Row | SMILES | Emax (human mGluR5; [2]) [%] | EC50 (human mGluR5; [3]) [nM] | other results
1 | O=C1c2cc(COc3ccccc3)nn2CCCN1CC1CC1(F)F (racemic) [Compound 25] | 58 | 389 | melting point: 102.2 °C
2 | O=C1c2cc(COc3ccccc3)nn2CCN1CC1CC1(F)F (stereo in doubt) [Compound 2, (S)-5-((2,2-difluorocyclopropyl)methyl)-2-(phenoxymethyl)-6,7-dihydropyrazolo[1,5-a]pyrazin-4(5H)-one] | – | – | reversal of amphetamine-induced hyperlocomotion [1]: effective in reducing amphetamine-induced hyperlocomotion
3 | O=C1c2cc(COc3ccccc3)nn2CCN1C[C@H]1CC1(F)F [Compound 1, (R)-5-((2,2-difluorocyclopropyl)methyl)-2-(phenoxymethyl)-6,7-dihydropyrazolo[1,5-a]pyrazin-4(5H)-one] | 55 | 234 | reversal of amphetamine-induced hyperlocomotion [1]: effective in reducing amphetamine-induced hyperlocomotion
4 | O=C1c2cc(COc3ccccc3)nn2CCN1C[C@@H]1CC1(F)F [Compound 2, (S)-5-((2,2-difluorocyclopropyl)methyl)-2-(phenoxymethyl)-6,7-dihydropyrazolo[1,5-a]pyrazin-4(5H)-one] | 65 | 380 | –
5 | C[C@@H]1Cn2nc(COc3ccccc3)cc2C(=O)N1CC1CC1(F)F (stereo partly shown) [Compound 4] | 72 | 871 | –
6 | C[C@@H]1Cn2nc(COc3ccccc3)cc2C(=O)N1CC1CCC1 [Compound 6] | 76 | 91.2 | –
7 | O=C1c2cc(COc3ccccc3)nn2CCN1CC1CC(F)(F)C1 [Compound 10] | 72 | 646 | –
8 | O=C1c2cc(COc3cccc(F)c3)nn2CCN1C[C@H]1CC1(F)F [Compound 14, (R)-5-((2,2-difluorocyclopropyl)methyl)-2-((3-fluorophenoxy)methyl)-6,7-dihydropyrazolo[1,5-a]pyrazin-4(5H)-one] | 51 | 158 | –
9 | O=C1c2cc(COc3ccccc3)nn2CCN1C1Cc2ccccc2C1 [Compound 17] | 77 | 58.9 | –
10 | O=C1c2cc(COc3cccc(F)c3)nn2CCN1C[C@@H]1CC1(F)F [Compound 21] | 65 | 110 | –
11 | CC1CN(CC2CC2)C(=O)c2cc(COc3ccccc3)nn2C1 (stereo not shown) [Compound 28] | 30 | > 30200 | melting point: 67.4 °C
12 | O=C1c2cc(COc3ccccc3)nn2CCN1CC1CC(F)(F)C1 [Compound 32] | – | – | Emax (%) (human mGluR5; H10H cell-line, maximum % effect as percent of response to maximally effective glutamate, glutamate EC20 present): 73%; pEC50 (human mGluR5; [3]): 6.19
13 | O=C1c2cc(COc3ccccc3)nn2CCN1[C@H]1CCCNC1 [Compound 33] | – | > 30200 | Emax (human mGluR5): 19%

The next lines start with results.

Row | Emax (human mGluR5; [2]) [%] | EC50 (human mGluR5; [3]) [nM] | SMILES | other results
14 | 25 | ≥ 10000 | O=C1c2cc(COc3ccccc3)nn2CCN1C1CCOC1 (racemic) [Compound 12] | –
15 | 52 | ≥ 10000 | O=C1c2cc(COc3ccccc3)nn2CCN1C1CCCOC1 (racemic) [Compound 20] | –
16 | 48 | 195 | O=C1c2cc(COc3ccccc3)nn2CCN1C1CCCC1 [Compound 7] | –
17 | 30 | > 10000 | O=C1c2cc(COc3ccccc3)nn2CCN1C1COC1 [Compound 8] | –
18 | 29 | 324 | O=C1c2cc(COc3ccccc3)nn2CCN1C1CCC1 [Compound 9] | –
19 | 46 | ≥ 10000 | O=C1c2cc(COc3ccccc3)nn2CCN1C1CCOCC1 [Compound 11] | –
20 | 58 | 145 | O=C1c2cc(COc3ccccc3)nn2CCN1C1CCCCC1 [Compound 13, 5-cyclohexyl-2-(phenoxymethyl)-6,7-dihydropyrazolo[1,5-a]pyrazin-4(5H)-one] | –
21 | 71 | 97.7 | CC1(C)CCC(N2CCn3nc(COc4ccccc4)cc3C2=O)CC1 [Compound 16] | –
22 | 79 | 52.5 | O=C1c2cc(COc3ccccc3)nn2CCN1CC1CCCCC1 [Compound 18] | –
23 | 59 | 380 | O=C1c2cc(COc3ccccc3)nn2CCCN1CC1CC1 [Compound 22, 5-(cyclopropylmethyl)-2-(phenoxymethyl)-5,6,7,8-tetrahydro-4H-pyrazolo[1,5-a][1,4]diazepin-4-one] | melting point: 126.4 °C
24 | 57 | 398 | CC1CCn2nc(COc3ccccc3)cc2C(=O)N1CC1CC1 (stereo not shown) [Compound 23] | melting point: 68.6 °C
25 | 38 | ≥ 10000 | CC1(C)CN(CC2CC2)C(=O)c2cc(COc3ccccc3)nn2C1 [Compound 24] | melting point: 96.5 °C
26 | 71 | 1100 | CC1(CN2CCn3nc(COc4ccccc4)cc3C2=O)COC1 [Compound 31] | –
27 | 24 | > 30200 | O=C1c2cc(COc3ccccc3)nn2CCN1[C@H]1CCNC1 [Compound 34] | –
28 | 22 | > 30200 | O=C1c2cc(COc3ccccc3)nn2CCN1C1CCNCC1 [Compound 37] | –

Reference: US20130345204A1, “SUBSTITUTED BICYCLIC CYCLOALKYL PYRAZOLE LACTAM ANALOGS AS ALLOSTERIC MODULATORS OF MGLUR5 RECEPTORS” (Vanderbilt University, priority 2012, published 2013)
